Measurements: patent US20080292584A1 (priority 2005, published 2008)
Several values for one entry are separate records, joined by “and”; a condition that tells them apart may be missing. Identical values can stand only once. Like-named read-outs stand apart in the source and are kept apart here.

Experiments:
CYP1A2 = target: T1, CYP1A2 (Homo sapiens, UniProt P05177); experiment: Inhibition of CYP1A2 activity in pooled human liver microsomes (phenacetin 50 μM to acetaminophen); type: in vitro ADME
T1 sequence (P05177 1-516): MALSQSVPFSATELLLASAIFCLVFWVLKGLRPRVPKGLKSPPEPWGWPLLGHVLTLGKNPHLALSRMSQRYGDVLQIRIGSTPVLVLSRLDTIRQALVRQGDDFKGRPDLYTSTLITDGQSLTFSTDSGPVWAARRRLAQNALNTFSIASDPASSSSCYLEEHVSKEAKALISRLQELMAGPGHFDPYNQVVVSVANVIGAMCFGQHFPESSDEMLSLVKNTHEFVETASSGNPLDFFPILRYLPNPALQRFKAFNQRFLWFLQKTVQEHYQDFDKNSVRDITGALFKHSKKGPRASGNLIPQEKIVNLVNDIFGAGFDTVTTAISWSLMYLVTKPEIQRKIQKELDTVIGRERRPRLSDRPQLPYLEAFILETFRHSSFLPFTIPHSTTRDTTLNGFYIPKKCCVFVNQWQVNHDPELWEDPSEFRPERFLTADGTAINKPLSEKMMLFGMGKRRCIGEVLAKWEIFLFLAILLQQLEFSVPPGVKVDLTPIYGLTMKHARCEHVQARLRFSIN
Procedure: Microsomes were prepared by differential centrifugation of liver homogenates pooled from at least ten human donors.
After a 5 minute preincubation, NADPH regenerating system (NRS) was added to initiate the reaction. CYP2A6 and CYP3A4 incubations were for 10 minutes. All other incubations were for 30 minutes.
Incubations for CYP2C8 were terminated by adding 1.0 mL of ACN, while all other incubations were terminated by adding 1.0 mL of methanol.
Vehicle control experiments were performed to establish a baseline value for enzyme activity. […] Four replicates were performed.
Two replicates were performed. […] No interference was detected in any of the metabolite assay methods used.

CYP2C8 = target: T2, CYP2C8 (Homo sapiens, UniProt P10632); experiment: Inhibition of CYP2C8 activity in pooled human liver microsomes (paclitaxel 5 μM to 6-hydroxy paclitaxel); type: in vitro ADME
T2 sequence (P10632 1-490): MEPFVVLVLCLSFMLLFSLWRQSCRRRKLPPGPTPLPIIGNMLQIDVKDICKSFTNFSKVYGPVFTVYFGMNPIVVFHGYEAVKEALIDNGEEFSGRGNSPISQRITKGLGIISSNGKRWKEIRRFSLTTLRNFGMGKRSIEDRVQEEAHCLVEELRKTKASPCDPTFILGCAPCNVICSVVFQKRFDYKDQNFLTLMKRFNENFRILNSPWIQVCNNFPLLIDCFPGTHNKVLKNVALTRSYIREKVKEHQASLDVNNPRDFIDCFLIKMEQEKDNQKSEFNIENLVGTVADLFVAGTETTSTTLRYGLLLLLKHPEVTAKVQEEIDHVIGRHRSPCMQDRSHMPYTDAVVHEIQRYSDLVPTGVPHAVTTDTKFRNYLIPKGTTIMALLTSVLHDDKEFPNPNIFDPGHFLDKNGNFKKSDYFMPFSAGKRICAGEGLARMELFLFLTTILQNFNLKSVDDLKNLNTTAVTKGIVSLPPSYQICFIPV
Procedure: All other incubations were for 30 minutes.
Four replicates were performed.
Two replicates were performed.

CYP3A4 = CYP3A4 (Homo sapiens, UniProt P08684); details: for % Turnover Mean: both, human, microsomes, 1 h, pH 7.4
Procedure: Human liver microsomes pooled from 15 individuals (male and female) (Pool HMMC-PL020; CellzDirect, Inc., In Vitro Products and Services Division) were used in some experiments of this study.
% Turnover=100−{[TA(final)]/[mean of TA(0 min)]}×100,
% Inhibition of Turnover=100{1−([TA(0 min)]−[TA(final-inhibitor)])/([TA(0 min)]−[TA(final-no inhibitor)])}.
The inhibitors or vehicle control were incubated with the pooled human liver microsomes (1 mg/mL) and NADPH (1 mM) in 0.1 M phosphate buffer, pH 7.4. […] Incubations were conducted in triplicate and terminated by addition of organic solvent. Samples were extracted and analyzed by LC-MS/MS as described above.

CYP2A6 = target: T3, CYP2A6 (Homo sapiens, UniProt P11509); experiment: Metabolism of metaxalone by expressed recombinant human CYP2A6 at 5 or 20 pmol (Example 4); details: for % Turnover Mean / [metaxalone] Mean / % Turnover % / [metaxalone]: 60 min; for % Turnover % / [metaxalone]: single replicates
T3 sequence (P11509 1-494): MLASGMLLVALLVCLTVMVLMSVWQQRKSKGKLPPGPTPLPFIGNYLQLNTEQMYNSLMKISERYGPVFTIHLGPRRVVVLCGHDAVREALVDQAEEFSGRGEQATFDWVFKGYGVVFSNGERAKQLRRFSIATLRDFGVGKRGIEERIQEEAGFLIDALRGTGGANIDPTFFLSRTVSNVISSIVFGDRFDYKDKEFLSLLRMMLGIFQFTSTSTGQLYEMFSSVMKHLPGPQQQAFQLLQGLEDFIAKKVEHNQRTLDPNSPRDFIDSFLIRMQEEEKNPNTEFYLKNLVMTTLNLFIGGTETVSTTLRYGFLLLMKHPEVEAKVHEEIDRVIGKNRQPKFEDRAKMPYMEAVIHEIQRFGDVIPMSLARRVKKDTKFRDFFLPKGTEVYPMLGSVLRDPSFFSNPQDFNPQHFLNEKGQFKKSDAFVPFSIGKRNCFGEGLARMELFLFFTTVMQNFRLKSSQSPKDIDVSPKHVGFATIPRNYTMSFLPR

[1] = 0.75 μM metaxalone, 1 mg/mL HLM, 60 min, with ketoconazole
[2] = 0.75 μM metaxalone, 1 mg/mL HLM, 60 min, with ketoconazole, single replicates
[3] = 7.5 μM metaxalone, 1 mg/mL HLM, 60 min, with ketoconazole
[4] = 7.5 μM metaxalone, 1 mg/mL HLM, 60 min, with ketoconazole, single replicates
[5] = 0.75 μM metaxalone, 5 pmol cyp, listed as Metaxalone
[6] = 0.75 μM metaxalone, 20 pmol cyp
[7] = 0.75 μM metaxalone, 20 pmol cyp, listed as Metaxalone
[8] = 7.5 μM metaxalone, 5 pmol cyp, listed as Metaxalone
[9] = 7.5 μM metaxalone, 20 pmol cyp, listed as Metaxalone

Chain of CYP3A4 (P08684 whole entry): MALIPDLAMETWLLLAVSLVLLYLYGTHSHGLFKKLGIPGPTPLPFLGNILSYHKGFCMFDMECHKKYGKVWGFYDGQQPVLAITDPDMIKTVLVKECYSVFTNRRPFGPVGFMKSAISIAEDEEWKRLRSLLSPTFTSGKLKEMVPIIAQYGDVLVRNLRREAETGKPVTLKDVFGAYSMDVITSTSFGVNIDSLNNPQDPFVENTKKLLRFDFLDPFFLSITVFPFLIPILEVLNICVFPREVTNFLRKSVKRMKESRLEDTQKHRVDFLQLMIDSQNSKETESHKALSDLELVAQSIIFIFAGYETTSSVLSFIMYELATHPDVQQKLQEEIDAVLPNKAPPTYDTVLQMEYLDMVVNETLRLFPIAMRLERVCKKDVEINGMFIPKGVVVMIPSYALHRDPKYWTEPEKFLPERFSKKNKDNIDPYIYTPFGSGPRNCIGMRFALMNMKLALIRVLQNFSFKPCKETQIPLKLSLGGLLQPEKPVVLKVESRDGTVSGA

SMILES: Cc1cc(C)cc(OCC2CNC(=O)O2)c1 (centres unmarked) [metaxalone, 5-[(3,5-dimethylphenoxy)methyl]-2-oxazolidinone]
- inhibition of CYP activity at a statistically significant level (CYP1A2; 0.3-100 μM metaxalone, p≦0.05): inhibited
- Inhibitor (CYP1A2; CYP isozyme 1A2, summary of studies): +
- Percent of VC (CYP1A2; metaxalone 0.3 μM): 97.2%
- Specific Activity Individual (CYP1A2; metaxalone 0.3 μM): 28.6 pmol/min/mg protein and 27.2 pmol/min/mg protein
- Specific Activity Mean ± SD (CYP1A2; metaxalone 0.3 μM): 28.0 ± 0.715 pmol/min/mg protein
- Percent of VC (CYP1A2; metaxalone 1 μM): 92.3%
- Specific Activity Individual (CYP1A2; metaxalone 1 μM): 26.6 pmol/min/mg protein
- Specific Activity Mean ± SD (CYP1A2; metaxalone 1 μM): 26.6 ± 0.327 pmol/min/mg protein
- Percent of VC (CYP1A2; metaxalone 3 μM): 90.3%
- Specific Activity Individual (CYP1A2; metaxalone 3 μM): 26.5 pmol/min/mg protein and 25.1 pmol/min/mg protein and 26.4 pmol/min/mg protein
- Specific Activity Mean ± SD (CYP1A2; metaxalone 3 μM): 26.0 ± 0.785 pmol/min/mg protein
- Percent of VC (CYP1A2; metaxalone 30 μM): 89.8%
- Specific Activity Individual (CYP1A2; metaxalone 30 μM): 25.2 pmol/min/mg protein and 25.8 pmol/min/mg protein and 26.7 pmol/min/mg protein
- Specific Activity Mean ± SD (CYP1A2; metaxalone 30 μM): 25.9 ± 0.725 pmol/min/mg protein
- Percent of VC (CYP1A2; metaxalone 100 μM): 82.0%
- Specific Activity Individual (CYP1A2; metaxalone 100 μM): 23.7 pmol/min/mg protein and 23.6 pmol/min/mg protein (2×)
- Specific Activity Mean ± SD (CYP1A2; metaxalone 100 μM): 23.6 ± 0.0275 pmol/min/mg protein
- inhibition of CYP activity at a statistically significant level (CYP2C8; 0.3-100 μM metaxalone): no tested concentration of metaxalone inhibited activity
- Inhibitor (CYP2C8; CYP isozyme 2C8, summary of studies): 0
- Percent of VC (CYP2C8; metaxalone 0.3 μM): 92.7%
- Specific Activity Individual (CYP2C8; metaxalone 0.3 μM): 19.3 pmol/min/mg protein and 15.2 pmol/min/mg protein and 16.1 pmol/min/mg protein
- Specific Activity Mean ± SD (CYP2C8; metaxalone 0.3 μM): 16.8 ± 2.18 pmol/min/mg protein
- Percent of VC (CYP2C8; metaxalone 1 μM): 103%
- Specific Activity Individual (CYP2C8; metaxalone 1 μM): 18.6 pmol/min/mg protein and 18.3 pmol/min/mg protein and 19.1 pmol/min/mg protein
- Specific Activity Mean ± SD (CYP2C8; metaxalone 1 μM): 18.7 ± 0.406 pmol/min/mg protein
- Percent of VC (CYP2C8; metaxalone 3 μM): 109%
- Specific Activity Individual (CYP2C8; metaxalone 3 μM): 20.0 pmol/min/mg protein and 19.9 pmol/min/mg protein and 19.6 pmol/min/mg protein
- Specific Activity Mean ± SD (CYP2C8; metaxalone 3 μM): 19.9 ± 0.232 pmol/min/mg protein
- Percent of VC (CYP2C8; metaxalone 30 μM): 101%
- Specific Activity Individual (CYP2C8; metaxalone 30 μM): 19.9 pmol/min/mg protein and 18.3 pmol/min/mg protein and 16.9 pmol/min/mg protein
- Specific Activity Mean ± SD (CYP2C8; metaxalone 30 μM): 18.4 ± 1.52 pmol/min/mg protein
- Percent of VC (CYP2C8; metaxalone 100 μM): 97.8%
- Specific Activity Individual (CYP2C8; metaxalone 100 μM): 17.6 pmol/min/mg protein and 20.6 pmol/min/mg protein and 15.1 pmol/min/mg protein
- Specific Activity Mean ± SD (CYP2C8; metaxalone 100 μM): 17.8 ± 2.76 pmol/min/mg protein
- % inhibition of turnover Mean (CYP3A4; [1]): 126%
- Mean Conc. (CYP3A4; [1]): 0.831 µM
- % inhibition of turnover (CYP3A4; [2]): 132% and 116% and 130%
- Conc. (CYP3A4; [2]): 0.844 µM and 0.807 µM and 0.842 µM
- % inhibition of turnover Mean (CYP3A4; [3]): 130%
- Mean Conc. (CYP3A4; [3]): 9.13 µM
- % Turnover (CYP3A4; [4]): 0.28%
- % inhibition of turnover (CYP3A4; [4]): 98.8% and 161% and 129%
- Conc. (CYP3A4; [4]): 8.49 µM and 9.78 µM and 9.12 µM
- % Turnover Mean (CYP3A4; 0.75 μM): −7.71%
- % Turnover Mean (CYP3A4; 7.5 μM): −7.26%
- % Turnover Mean (CYP2A6; 0.75 μM metaxalone, 5 pmol cyp): 0.14%
- [metaxalone] Mean (CYP2A6; 0.75 μM metaxalone, 5 pmol cyp): 0.790 µM
- % Turnover % (CYP2A6; 0.75 μM metaxalone, 5 pmol cyp): −4.1%
- % Turnover % (CYP2A6; [5]): 1.8% and 2.8%
- [metaxalone] (CYP2A6; [5]): 0.777 µM and 0.824 µM and 0.769 µM
- % Turnover Mean (CYP2A6; [6]): 0.91%
- [metaxalone] Mean (CYP2A6; [6]): 0.784 µM
- % Turnover % (CYP2A6; [6]): −5.7%
- % Turnover % (CYP2A6; [7]): 3.7% and 4.8%
- [metaxalone] (CYP2A6; [7]): 0.837 µM and 0.762 µM and 0.753 µM
- % Turnover Mean (CYP2A6; 7.5 μM metaxalone, 5 pmol cyp): 3.7%
- [metaxalone] Mean (CYP2A6; 7.5 μM metaxalone, 5 pmol cyp): 8.14 µM
- % Turnover % (CYP2A6; 7.5 μM metaxalone, 5 pmol cyp): −2.3%
- % Turnover % (CYP2A6; [8]): 9.0% and 4.3%
- [metaxalone] (CYP2A6; [8]): 7.69 µM and 8.08 µM and 8.64 µM
- % Turnover Mean (CYP2A6; 7.5 μM metaxalone, 20 pmol cyp): −1.8%
- [metaxalone] Mean (CYP2A6; 7.5 μM metaxalone, 20 pmol cyp): 8.59 µM
- % Turnover % (CYP2A6; [9]): −1.6% and 6.1% and −9.8%
- [metaxalone] (CYP2A6; [9]): 8.58 µM and 7.93 µM and 9.27 µM
- Substrate (CYP2A6; CYP isozyme 2A6, summary of studies): 0
